In patent publication US20090099186A1, “INHIBITORS OF VIRAL REPLICATION” (priority 2005, published 2009) one finds IC50 data, which are given here for eight compounds.

Each structure is given as a SMILES string. Some results are limits rather than exact numbers.

The test has as its target T1, full-length NS3 (1-631) protein (HCV NS3 helicase) (Hepatitis C virus genotype 1a, UniProt P27958).
T1 construct: Recombinant, purified, full-length NS3 (1-631) protein
Description: HCV Helicase TR-FRET Unwinding Assay. Format: biochemical. On the procedure:
HCV Helicase TR-FRET Unwinding Assay
Compound potency was assessed by determining the ability of the compound to inhibit DNA unwinding in an in vitro homogeneous time-resolved fluorescence quench assay. The helicase substrate (Perkin Elmer, TruPoint Helicase Substrate) consisted of partially double-stranded DNA, with one oligonucleotide strand labeled with a fluorescent europium chelate and the other strand labeled with the QSY™ 7 quencher. In the presence of helicase and ATP, this DNA is unwound and a large increase in fluorescence is observed. An excess of an unlabeled oligonucleotide (also from Perkin Elmer, TruPoint Helicase Capture Strand) that is complementary to the quencher strand was included in the assay to prevent reannealing of the europium and QSY-labeled strands.
The assay buffer consisted of 25 mM MOPS (pH 7.0), 500 μM MgCl2, and 0.005% (v/v) Triton X-100, with DMSO being present at a final concentration of 2% (v/v). Recombinant, purified, full-length NS3 (1-631) protein was included in these assays at a final concentration of 2.5 nM. Compound was incubated with NS3 protein for 5 minutes in a 384-well white Proxiplate™ (Perkin Elmer) prior to the addition of TruPoint Helicase Substrate (4 nM final concentration), TruPoint Helicase Capture Strand (15 nM final concentration), and ATP (100 μM final concentration). The final reaction volume was 20 μL. Immediately after the addition of the substrates and capture strand, the initial rates of the unwinding reactions were determined at room temperature via an Envision (Perkin Elmer) plate reader. The rates of reactions containing test compound were compared to those lacking test compound in order to evaluate compound potency. IC50 values were determined using the curve-fitting software XLfit (IDBS).

Where [1] appears, read: Table 4, inhibition of DNA unwinding, 2.5 nM NS3, 100 μM ATP.
[2] abbreviates: second TR-FRET IC50 column (c2) of Table 4, same head as the first, inhibition of DNA unwinding.

T1 sequence (P27958 1027-1657 T1100M/T1173A/K1247Q/A1303G/S1327L/G1556E/R1608W): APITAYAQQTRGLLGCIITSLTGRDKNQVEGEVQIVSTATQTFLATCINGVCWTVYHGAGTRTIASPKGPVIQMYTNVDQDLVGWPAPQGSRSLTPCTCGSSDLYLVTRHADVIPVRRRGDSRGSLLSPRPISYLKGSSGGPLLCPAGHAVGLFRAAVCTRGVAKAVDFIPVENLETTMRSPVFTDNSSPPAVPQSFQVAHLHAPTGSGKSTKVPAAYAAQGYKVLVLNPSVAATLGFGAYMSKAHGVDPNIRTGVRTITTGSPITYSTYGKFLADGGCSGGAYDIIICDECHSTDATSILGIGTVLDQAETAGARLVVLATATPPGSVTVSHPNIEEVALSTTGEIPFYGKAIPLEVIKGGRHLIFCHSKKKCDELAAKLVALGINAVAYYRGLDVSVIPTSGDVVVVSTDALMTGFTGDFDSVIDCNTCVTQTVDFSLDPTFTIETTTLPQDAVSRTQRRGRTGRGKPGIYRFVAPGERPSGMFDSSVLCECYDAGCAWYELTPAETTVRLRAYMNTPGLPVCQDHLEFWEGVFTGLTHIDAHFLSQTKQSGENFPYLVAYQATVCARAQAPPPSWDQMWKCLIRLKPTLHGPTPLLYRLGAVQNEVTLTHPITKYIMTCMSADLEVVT

For the compound `COc1ccccc1Sc1ccc(/C=C/C(=O)NCCC(=O)O)c(Cl)c1` [Example 29, (E)-3-(3-(2-chloro-4-(2-methoxyphenylthio)phenyl)acrylamido)propanoic acid], the IC50 was 10 to 50 µM under setting [1] and 10 to 50 µM under setting [2].
For the compound `CCN(CC)C(=O)/C=C/c1ccc(Sc2ccccc2OC)cc1Cl` [Example 28, (E)-3-(2-chloro-4-(2-methoxyphenylthio)phenyl)-N,N-diethylacrylamide], the half-maximal inhibitory concentration (IC50) reads like this: under setting [1], 10 to 50 µM; under setting [2], 10 to 50 µM.
The compound `Cc1cc(/C=C/C(=O)N2CCN(C(=O)c3ccoc3)CC2)c(Cl)cc1Sc1ccc(F)cc1` [Example 17, (E)-3-(2-chloro-4-(4-fluorophenylthio)-5-methylphenyl)-1-(4-(furan-3-carbonyl)piperazin-1-yl)prop-2-en-1-one] showed a concentration for half-maximal inhibition (IC50) under setting [1] of 10 to 50 µM and a half-maximal inhibitory concentration (IC50) under setting [2] of 10 to 50 µM.
For the compound `Cc1cc(/C=C/C(=O)Nc2cccc(C(=O)O)c2)c(Cl)cc1Sc1ccc(F)cc1` [Example 21, (E)-3-(3-(2-chloro-4-(4-fluorophenylthio)-5-methylphenyl)acrylamido)benzoic acid], the 50% inhibitory concentration (IC50) was less than 10 µM under setting [1] and less than 10 µM under setting [2].
For the compound `COc1ccccc1Sc1ccc(/C=C/C(=O)N2CCC(C(=O)O)CC2)c(Cl)c1Cl` [Example 32D, (E)-1-(3-(2,3-dichloro-4-(2-methoxyphenylthio)phenyl)acryloyl)piperidine-4-carboxylic acid], the IC50 lay in the range of 10 to 50 µM under setting [1] and 10 to 50 µM under setting [2].
In turn, `O=C(/C=C/c1ccccc1Cl)N1Cc2ccccc2C1` [Example 34, (E)-3-(2-chlorophenyl)-1-(isoindolin-2-yl)prop-2-en-1-one] registered a half-inhibitory concentration (IC50) under setting [1] of 10 to 50 µM and a concentration for half-maximal inhibition (IC50) under setting [2] of 10 to 50 µM.
As to `Cc1cc(/C=C/C(=O)NCCC(=O)O)c(Cl)cc1Sc1ccc(F)cc1` [Example 20, (E)-3-(3-(2-chloro-4-(4-fluorophenylthio)-5-methylphenyl)acrylamido)propanoic acid], the IC50 fell in the range of 10 to 50 µM under setting [1] and 10 to 50 µM under setting [2].
Turning to `CN(C)c1ccc(/C=C/C(=O)N2CCN(C(=O)c3ccoc3)CC2)c(Cl)c1` [Example 12, (E)-3-(2-chloro-4-(dimethylamino)phenyl)-1-(4-(furan-3-carbonyl)piperazin-1-yl)prop-2-en-1-one], the IC50 by setting is: under setting [1], 10 to 50 µM; under setting [2], 10 to 50 µM.
